{"source": "paper PMC7872424", "about": "“Mining Natural Products for Macrocycles to Drug Difficult Targets” (Journal of Medicinal Chemistry, 2020)", "key": {"[1]": {"test_system": "Trichophyton asteroides 429", "parameters": "method as in Tamai, S., et al., J. Antibiot., 1982, 35, 1130-1136", "conditions": "Table S4; ref Tamai, S., et al., J. Antibiot., 1982, 35, 1130-1136; cited from earlier work"}, "[2]": {"test_system": "Trichophyton mentagrophytes 833", "parameters": "method as in Tamai, S., et al., J. Antibiot., 1982, 35, 1130-1136", "conditions": "Table S4; ref Tamai, S., et al., J. Antibiot., 1982, 35, 1130-1136; cited from earlier work"}, "DAUDI cell line": {"test_system": "DAUDI cell line", "parameters": "method as in Cribiu, R., et al., Angew. Chem. Int. Ed. 2009, 48, 8780–8783", "conditions": "Table S4; ref Cribiu, R., et al., Angew. Chem. Int. Ed. 2009, 48, 8780–8783; cited from earlier work"}, "HL-60 cell line": {"test_system": "HL-60 cell line", "parameters": "method as in Cribiu, R., et al., Angew. Chem. Int. Ed. 2009, 48, 8780–8783", "conditions": "Table S4; ref Cribiu, R., et al., Angew. Chem. Int. Ed. 2009, 48, 8780–8783; cited from earlier work"}, "Caco-2 cell monolayers": {"test_system": "Caco-2 cell monolayers", "test": "Efflux-inhibited permeability across Caco-2 cell monolayers", "format": "in vitro ADME"}, "DNA gyrase B": {"test_system": "DNA gyrase B", "parameters": "method as in earlier work", "conditions": "Table S4, ref Brvar, M., et al., Bioorg. Med. Chem. Lett. 2010, 20, 3, 958–962 & Boehm, H. J., J. Med. Chem. 2000, 43, 14, 2664-2674; cited from earlier work"}}}
{"smiles": "Oc1ccc2cc1Oc1ccc(cc1)CC1CNC(CN1)C2", "note": "(stereo not drawn) [Piperazinomycin]", "values": [{"measurement": "Inhibition of Trichophyton asteroides 429", "setting": "[1]", "value": "Inhibition"}, {"measurement": "Inhibition of Trichophyton mentagrophytes 833", "setting": "[2]", "value": "Inhibition"}]}
{"smiles": "CC=CCC=CC(C)CC(O)C1CC2OC2C=CC(O)C(O)C=CCC(C)CC(=O)O1", "note": "(stereo not drawn) [Iriomoteolide 3a]", "values": [{"measurement": "Antiproliferative activity vs DAUDI cell line", "setting": "DAUDI cell line", "value": "Antiproliferative activity"}, {"measurement": "Antiproliferative activity vs HL-60 cell line", "setting": "HL-60 cell line", "value": "Antiproliferative activity"}]}
{"smiles": "CC(=O)N1CCC[C@H]1C(=O)N[C@@H]1COC(=O)c2ccccc2CSC[C@H](C(=O)N(C)C)NC1=O", "note": "[Compound 14, (4S,7R)-7-((S)-1-Acetylpyrrolidine-2-carboxamido)-N,N-dimethyl-6,10-dioxo-1,3,4,5,6,7,8,10-octahydrobenzo[j][1]oxa[8]thia[5]azacyclododecine-4-carboxamide]", "values": [{"measurement": "permeability across Caco-2 cell monolayers (in words)", "setting": "Caco-2 cell monolayers", "value": "low-to-moderate"}]}
{"smiles": "Cc1c(O)cc(O)c2c1C(=O)OCC(NC(=O)C1C(O)CCN1C(=O)C(N)CO)C(=O)NC(C(=O)NC(C)C(=O)O)CSC2", "note": "(stereo not drawn) [Cyclothialidine]", "values": [{"measurement": "DNA gyrase B ATPase activity", "setting": "DNA gyrase B", "value": "Inhibition"}]}
